Data: patent US4442106A, “Quinoline derivatives, pharmaceutical compositions containing such compounds, and methods of treating cardiovascular conditions with them” (ACF Chemiefarma N.V., priority 1980, dated 1984)
Where two headings read alike, the source gives them in different places.

What was measured:
[1] = system: right ventricle of the heart; test: Guinea Pigs Electrostimulation Test (arrhythmias by electrostimulation of the right ventricle of the heart); assay type: in vivo; settings: Cavia porcellus, 0.5 h, 30 minutes before stimulation, read-out: Percent increase in voltage required for arrhythmia; for change in vivo at 32 mg/kg: standard dose 32 mg/kg intraduodenal
Method: Experiment 2-Effectiveness of the compounds of Examples in the Guinea Pigs Electrostimulation Test
Arrhythmias are induced in guinea pigs by electrostimulation of the right ventricle of the heart. The animals are anaesthesized with urethane (1.2 g/kg i.p.) and artificially respirated before a needle electrode is inserted in the right ventricle of the heart. Substances are given intraduodinally 30 minutes before the stimulation at a standard dose of 32 mg/kg. In some cases a different dose was used as indicated.
The voltage needed for induction of extra systoles in control animals (n=6) is compared with that required for induction of arrhythmias in treated animals (n=6).
This method is based on the work of L. Szekeres and G. J. Papp, Naunyn-Schmiedebergs Arch. Exp. Path. Pharmak., 245, 70 (1963).
In the table the results of certain compounds of the invention are mentioned, which have been carried out according to the method described above.
The numbers of the compounds correspond with those of the Examples.

[2] = system: spontaneously hypertensive rats; test: Effectiveness in spontaneously hypertensive rats: systolic blood pressure by tail cuff method; assay type: in vivo; settings: Rattus norvegicus, read-out: Change of systolic blood-pressures
Method: Experiment 1-Effectiveness of the compounds of Examples in spontaneously hypertensive rats
Systolic blood pressures were recorded by a modification of the tail cuff method described by I.M. Claxton et al., Eur. J.Pharmacology 37, 179 (1976). An oscilloscope or W+W BP recorder, model 8002, was used to display pulses.
Prior to all measurements rats were placed in a heated environment (33.5±0.5° C.) before transfer to a restraining cage. Each determination of blood pressure was the mean of at least 6 readings.
Spontaneously hypertensive rats (aged 12-18 weeks) with systolic blood pressures >170 mm Hg were considered hypertensive.
In the following table the results with certain compounds of the invention, which have been carried out with the above-described method, are mentioned. The numbers of the compounds correspond with those of the Examples.

LD50 in mice = settings: mouse, in vivo

Row | Compound | change in vivo at 32 mg/kg [1] | change in vivo at 10 mg/kg ([2]; 1 h) | change in vivo at 10 mg/kg ([2]; 2 h) | change in vivo at 10 mg/kg ([2]; 4 h) | change in vivo at 10 mg/kg ([2]; 6 h) | change in vivo at 10 mg/kg ([2]; 24 h) | other results
1 | CC[C@H]1CN(CCCC(=O)c2ccc(F)cc2)CC[C@H]1CCC(O)c1cc(C)nc2ccccc12 (stereo partly drawn) [Compound 39, N-[3-(4-fluorobenzoyl)propyl]-2'-methyl-hydrocinchonicinol-1] | 5% |  |  |  |  |  | change in vivo at 1 mg/kg ([2]; 1 h): -16%; change in vivo at 1 mg/kg ([2]; 2 h): -24%; change in vivo at 1 mg/kg ([2]; 4 h): -26%; change in vivo at 1 mg/kg ([2]; 6 h): -23%; change in vivo at 1 mg/kg ([2]; 24 h): -1%
2 | CCCOc1cc(C(=O)CC[C@@H]2CCN(C)C[C@@H]2CC)c2ccccc2n1 [Compound 51, N-methyl-2'-propoxy-hydrocinchonicine.bioxalate] | -5% |  |  |  |  |  | change in vivo at 3 mg/kg ([2]; 1 h): -1%; change in vivo at 3 mg/kg ([2]; 2 h): 0%; change in vivo at 3 mg/kg ([2]; 4 h): -7%; change in vivo at 3 mg/kg ([2]; 6 h): -13%; change in vivo at 3 mg/kg ([2]; 24 h): -1%
3 | CC[C@H]1CN(CCCC(=O)c2ccccc2)CC[C@H]1CCC(=O)c1cc(C)nc2ccccc12 [Compound 25, N-(3-benzoylpropyl)-2'-methyl-hydrocinchonicine.bifumarate] | 5% |  |  |  |  |  | change in vivo at 100 mg/kg ([2]; 1 h): -16%; change in vivo at 100 mg/kg ([2]; 2 h): -25%; change in vivo at 100 mg/kg ([2]; 4 h): -9%; change in vivo at 100 mg/kg ([2]; 6 h): -5%; change in vivo at 100 mg/kg ([2]; 24 h): 2%
4 | CCCN1CC[C@@H](CC(=O)Cc2cc(OC)nc3ccccc23)[C@@H](CC)C1 [Compound 63, 1-(2-Methoxy-4-quinolyl)-3-[3(R)-ethyl-N-propyl-4(S)-piperidyl]-propanone-2.bioxalate] |  | -1% | 1% | -4% | -3% | -6% | change in vivo at 4 mg/kg ([1]; at 4 mg/kg, intraduodenal): 12%
5 | CCCc1cc(C(O)CC[C@@H]2CCN(CCC)C[C@@H]2CC)c2ccccc2n1 (stereo partly drawn) [Compound 41, N-propyl-2'-propyl-hydrocinchonicinol-1] |  | -6% | -11% | -15% | -17% | 3% | change in vivo at 8 mg/kg ([1]; at 8 mg/kg, intraduodenal): 101%
6 | CCCN1CC[C@@H](CCC(=O)c2cc(C)nc3ccccc23)[C@@H](CC)C1 [Compound 26, N-propyl-2'-methyl-hydrocinchonicine] | 24% | 0% | 3% | -5% | -7% |  | LD50 (LD50 in mice): 500 mg/kg
